Here are results for twelve compounds from ChEMBL document CHEMBL2429770, “Development of Mycobacterium tuberculosis whole cell screening hits as potential antituberculosis agents” (J Med Chem, 2013).

pKi: −log10 of the molar value.

One may read the pKi as the negative decadic logarithm of the Ki, by convention in mol/L. Higher therefore signals a small Ki. By MIC is commonly meant the lowest concentration that inhibits growth of the organism. A high value points to a need for much substance.

Molecular target in the first assay: not listed separately
In words: Inhibition of Mycobacterium tuberculosis PtpB.
`O=C(O)c1cc(-c2ccc(-c3ccc(F)c(C(F)(F)F)c3)cc2C2CCCCC2)on1` gave a pKi of 6.66.
The compound `O=P(O)(O)C(F)(F)c1ccc(-c2ccc(F)c(C(F)(F)F)c2)cc1C1CCCCC1` showed a pKi of 6.16.

In the next assay the test system is Mycobacterium tuberculosis. In words: Antimycobacterial activity against Mycobacterium tuberculosis H37Rv. The class given is functional.
As to `O=C(NC12CC3CC(CC(C3)C1)C2)c1cc2cc(Cl)ccc2[nH]1`, the lowest concentration to inhibit growth (MIC) was 0.47 µM.
With `CCCCCCCCCCN1CCCC(O/N=C2\[C@H](C)C[C@@](C)(OC)[C@H](O[C@@H]3O[C@H](C)C[C@H](N(C)C)[C@H]3O)[C@@H](C)C(=O)[C@@H](C)C(=O)O[C@H](CC)[C@@](C)(O)[C@H](O)[C@H]2C)C1` (some centres not stated), the minimum inhibitory concentration (MIC) is 0.125 µM. This MIC is about 3.8-fold lower than that of the compound before.
With `Cc1ccc2nc(C)c(C(=O)NCc3cccs3)n2c1`, the MIC stood at 0.19 µM.
Still for that read-out and setting: to `COc1ccc2nc(C)cc(OCC(=O)Nc3ccccc3OC)c2c1` belongs 0.7 µM; to `c1cc2c(s1)CCOC21CCN(Cc2ccc3c(c2)OCCO3)CC1`, 0.38 µM; to `Cc1sc(N)nc1C(=O)O`, 0.06 µg/mL.
The same measure, in the same setting: to `COC(=O)c1nc(N)sc1Cc1ccccc1` belongs 0.06 µg/mL.
Still for that read-out and setting: then `CCc1ccc([C@@H]2C[C@H](C(F)(F)F)n3ncc(C(=O)NCc4ccc(OC)cc4)c3N2)cc1`, with 0.25 µM.
For `COc1ccc(CCNc2cc(-c3ccccc3)nc3ncnn23)cc1`, the MIC came out at 0.94 µM. This MIC is about 3.8-fold higher than that of the compound before.
For `Cc1cccc(-c2nc(Nc3ccncn3)c3c(C)csc3n2)n1`, it took 0.76 µM to inhibit growth (MIC).
